The values that follow come from patent publication US20250388605A1, “HETEROBIFUNCTIONAL COMPOUNDS AND METHODS OF TREATING DISEASE” (Halda Therapeutics OpCo, Inc., priority 2022, published 2025).

Usually GI50 stands for the concentration that inhibits growth by half. A higher GI50 goes with less potent growth inhibition.

The test system of one assay is T47D cells. The experiment in a line: Cellular Growth Inhibition Assay for T47D Cells (CellTiter-Glo). The format is cell-based, human. As to conditions: 72 hours. Summed up: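 GI50 values derive from four-parameter regression of CellTiter-Glo 2.0 luminescence, using zero luminescence as baseline. Human breast cancer T47D cells (3000/well; DMEM, 10% FBS, 0.2 units/mL insulin) were exposed for 72 h to compound dilutions at 0.5% DMSO, with dosing starting 24 h after seeding.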

Assay [1] relates to T-Rex 293 cell line SC3 cells lacking increased expression of androgen receptor protein. The assay is described as follows: Cellular growth inhibition, T-Rex 293 SC3 cells without doxycycline (no increased androgen receptor expression), CellTiter-Glo. The format is cell-based. As to conditions: T-Rex 293 SC3 cells not exposed to doxycycline (no increased androgen receptor expression), 72 hours. The method, boiled down: (§1)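 Doxycycline (10 ng/mL) was either included or omitted to toggle wild-type androgen receptor expression in SC3 cells, a T-Rex 293 clone, grown in stripped-serum, phenol red-free medium. After 72 hours with compound, viable cells were quantified by CellTiter-Glo 2.0.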
Background: In ATP-based viability assays light output follows the ATP content of the culture.

For assay [2], the system named is T-Rex 293 cell line SC3 cells having increased expression of androgen receptor protein due to exposure to doxycycline. The experiment in a line: Cellular growth inhibition, T-Rex 293 SC3 cells with doxycycline (increased androgen receptor expression), CellTiter-Glo. The class given is cell-based. The conditions noted are these: T-Rex 293 SC3 cells with 10 ng/mL doxycycline (increased androgen receptor expression), 72 hours, CellTiter-Glo 2.0. The method, boiled down: as §1

A further assay has as its system VCaP cells. The assay is described as follows: Cellular growth inhibition assay for VCaP cells, CellTiter-Glo. The class given is cell-based, human. As to conditions: 72 hours. The method, boiled down: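 GI50 values come from four-parameter curve fits of luminescence data normalized to a zero baseline. Compound, in medium with 0.5% DMSO, was added one day after plating and left for 72 h before CellTiter-Glo 2.0 addition.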

As for `Cn1cc(-c2cc(C(C)(C)O)ccc2OC2CCC(N3CC(OC4CCN(c5ncc(C(=O)NC6C(C)(C)C(Oc7ccc(C#N)c(Cl)c7)C6(C)C)cn5)CC4)C3)CC2)c2cc[nH]c2c1=O` (centres unmarked) [Compound I-289], the GI50 was 1500 to 3000 nM in the assay on T47D cells, 1500 to 3000 nM in assay [1], under 500 nM in assay [2] and 500 to 1500 nM in the assay with VCaP cells.
Take `Cn1cc(-c2cc(C(C)(C)O)ccc2Oc2ccc(OC3CCN(C4CCN(c5ncc(C(=O)N[C@H]6C(C)(C)[C@H](Oc7ccc(C#N)c(Cl)c7)C6(C)C)cn5)CC4)CC3)cc2)c2cc[nH]c2c1=O` [Compound I-328]: the GI50 (in the assay on T47D cells (Homo sapiens); in assay [1]; in assay [2]; in the assay with VCaP cells (Homo sapiens)) was under 500 nM each time.
As for `CCS(=O)(=O)c1ccc(Oc2ccc(CCC3CCN(c4ncc(C(=O)N[C@H]5C(C)(C)[C@H](Oc6ccc(C#N)c(Cl)c6)C5(C)C)cn4)CC3)c(F)c2)c(-c2cn(C)c(=O)c3[nH]ccc23)c1` [Compound I-284], the GI50 was under 500 nM in the assay with T47D cells, over 3000 nM in assay [1], under 500 nM in assay [2] and under 500 nM in the assay on VCaP cells.
With `Cn1cc(-c2cc(C(C)(C)O)ccc2Oc2ccc(N3CC4(CCCN(c5cnc(C(=O)N[C@H]6C(C)(C)[C@H](Oc7ccc(C#N)c(Cl)c7)C6(C)C)cn5)C4)C3)cc2)c2cc[nH]c2c1=O` [Compound I-342], the GI50 is under 500 nM in the assay on T47D cells, over 3000 nM in assay [1], under 500 nM in assay [2] and under 500 nM with VCaP cells.
Turning to `Cn1cc(-c2cc(C(C)(C)O)ccc2Oc2ccc(C(C)(C)N3CC4(CCN(c5ncc(C(=O)N[C@H]6C(C)(C)[C@H](Oc7ccc(C#N)c(Cl)c7)C6(C)C)cn5)CC4)C3)cc2)c2cc[nH]c2c1=O` [Compound I-308], the GI50 in the assay with T47D cells (Homo sapiens) is over 3000 nM; in assay [1] it was 500 to 1500 nM; in assay [2], under 500 nM; with VCaP cells (Homo sapiens) it was under 500 nM.
In the case of `CCS(=O)(=O)Nc1ccc(Oc2cccc(N3CC(OC4CCN(c5ncc(C(=O)N[C@H]6C(C)(C)[C@H](Oc7ccc(C#N)c(Cl)c7)C6(C)C)cn5)CC4)C3)c2)c(-c2cn(C)c(=O)c3[nH]ccc23)c1` [Compound I-181], the GI50 in the assay with T47D cells is under 500 nM; in assay [1], over 3000 nM; in assay [2], under 500 nM; in the assay with VCaP cells, under 500 nM.
In the case of `Cn1cc(-c2cc(S(C)(=O)=O)ccc2Oc2cccc(N3CC(CC4CCN(c5ncc(C(=O)NC6C(C)(C)C(Oc7ccc(C#N)c(Cl)c7)C6(C)C)cn5)CC4)C3)c2F)c2cc[nH]c2c1=O` (centres unmarked) [Compound I-189, N-[3-(3-chloro-4-cyano-phenoxy)-2,2,4,4-tetramethyl-cyclobutyl]-2-[4-[[1-[2-fluoro-3-[2-(6-methyl-7-oxo-1H-pyrrolo[2,3-c]pyridin-4-yl)-4-methylsulfonyl-phenoxy]phenyl]azetidin-3-yl]methyl]-1-piperidyl]pyrimidine-5-carboxamide], the GI50 in the assay on T47D cells (Homo sapiens) was under 500 nM; in assay [1], over 3000 nM; in assay [2], under 500 nM; in the assay with VCaP cells (Homo sapiens), over 3000 nM.
As for `CCS(=O)(=O)Cc1ccc(Oc2cccc(N3CC(N4CCN(c5ncc(C(=O)N[C@H]6C(C)(C)[C@H](Oc7ccc(C#N)c(Cl)c7)C6(C)C)cn5)CC4)C3)c2)c(-c2cn(C)c(=O)c3[nH]ccc23)c1` [Compound I-114], the GI50 (in the assay on T47D cells (Homo sapiens); in assay [1]; in assay [2]; with VCaP cells (Homo sapiens)) was under 500 nM in each case.
On to `CCS(=O)(=O)c1ccc(Oc2ccc(CCCC3CCN(c4ncc(C(=O)N[C@H]5C(C)(C)[C@H](Oc6ccc(C#N)c(Cl)c6)C5(C)C)cn4)CC3)c(F)c2)c(-c2cn(C)c(=O)c3[nH]ccc23)c1` [Compound I-285], for which the GI50 with T47D cells (Homo sapiens) was under 500 nM; in assay [1] it was over 3000 nM; in assay [2] it was under 500 nM; in the assay on VCaP cells (Homo sapiens), under 500 nM.
`CCS(=O)(=O)Nc1ccc(Oc2cccc(OC3CCN(C4CCN(c5ncc(C(=O)N[C@H]6C(C)(C)[C@H](Oc7ccc(C#N)c(Cl)c7)C6(C)C)cn5)CC4)C3)c2)c(-c2cn(C)c(=O)c3[nH]ccc23)c1` (some centres unmarked) [Compound I-43]: the GI50 with T47D cells (Homo sapiens) is under 500 nM; in assay [1], 1500 to 3000 nM; in assay [2] it was under 500 nM; in the assay on VCaP cells (Homo sapiens), under 500 nM.
As to `Cn1cc(-c2cc(C(C)(C)O)ccc2Oc2cccc(OCCC3CC4(C3)CN(c3ncc(C(=O)N[C@H]5C(C)(C)[C@H](Oc6ccc(C#N)c(Cl)c6)C5(C)C)cn3)C4)c2F)c2cc[nH]c2c1=O` [Compound I-210], the GI50 in the assay with T47D cells was 500 to 1500 nM; in assay [1] it was under 500 nM; in assay [2] it was under 500 nM; in the assay with VCaP cells, under 500 nM.
Turning to `Cn1cc(-c2cc(C(C)(C)O)ccc2O[C@H]2C[C@H](OCC3CCN(c4ncc(C(=O)N[C@H]5C(C)(C)[C@H](Oc6ccc(C#N)c(Cl)c6)C5(C)C)cn4)CC3)C2)c2cc[nH]c2c1=O` [Compound I-290], the GI50 in the assay with T47D cells is 500 to 1500 nM; in assay [1] it was under 500 nM; in assay [2], under 500 nM; in the assay with VCaP cells, under 500 nM.
On to `Cn1cc(-c2cc(C(C)(C)O)ccc2Oc2ccc(CCCC3CCCN(c4ncc(C(=O)N[C@H]5C(C)(C)[C@H](Oc6ccc(C#N)c(Cl)c6)C5(C)C)cn4)C3)cc2)c2cc[nH]c2c1=O` (some centres unmarked) [Compound I-306], for which the GI50 with T47D cells is over 3000 nM; in assay [1], over 3000 nM; in assay [2], under 500 nM; with VCaP cells, 500 to 1500 nM.
As for `CC(=O)Nc1ccc(Oc2cccc(OCCOC3CCN(c4ncc(C(=O)N[C@H]5C(C)(C)[C@H](Oc6ccc(C#N)c(Cl)c6)C5(C)C)cn4)CC3)c2)c(-c2cn(C)c(=O)c3[nH]ccc23)c1` [Compound I-57, 2-(4-(2-(3-(4-acetamido-2-(6-methyl-7-oxo-6,7-dihydro-1H-pyrrolo [2,3-c]pyridin-4-yl)phenoxy)phenoxy)ethoxy)piperidin-1-yl)-N-((1r, 3r)-3-(3-chloro-4-cyanophenoxy)-2,2,4,4-tetramethylcyclobutyl)pyrimidine-5-carboxamide], the GI50 in the assay with T47D cells (Homo sapiens) is under 500 nM; in assay [1] it was 500 to 1500 nM; in assay [2], under 500 nM; with VCaP cells (Homo sapiens), under 500 nM.
Take `CCS(=O)(=O)c1ccc(Oc2ccc(N3CC(C4CCN(c5ncc(C(=O)N[C@H]6C(C)(C)[C@H](Oc7ccc(C#N)c(Cl)c7)C6(C)C)cn5)CC4)C3)cc2)c(-c2cn(C)c(=O)c3[nH]ccc23)c1` [Compound I-291]: the GI50 (in the assay on T47D cells; in assay [1]; in assay [2]; in the assay on VCaP cells) was under 500 nM in each case.
For the compound `CCS(=O)(=O)c1ccc(Oc2ccc(CN3CCC4(CCN(c5ncc(C(=O)N[C@H]6C(C)(C)[C@H](Oc7ccc(C#N)c(Cl)c7)C6(C)C)cn5)C4)C3)c(F)c2)c(-c2cn(C)c(=O)c3[nH]ccc23)c1` (some centres unmarked) [Compound I-272], the GI50 (in the assay on T47D cells (Homo sapiens); in assay [1]; in assay [2]; in the assay on VCaP cells (Homo sapiens)) was under 500 nM each time.
With `Cn1cc(-c2ccccc2Oc2cccc(CCOC3CCN(c4ncc(C(=O)N[C@H]5C(C)(C)[C@H](Oc6ccc(C#N)c(Cl)c6)C5(C)C)cn4)CC3)c2)c2cc[nH]c2c1=O` [Compound I-146], the GI50 in the assay with T47D cells was under 500 nM; in assay [1] it was over 3000 nM; in assay [2], under 500 nM; in the assay with VCaP cells, under 500 nM.
For the compound `Cn1cc(-c2cc(C(C)(C)O)ccc2Oc2cccc(CC3CCC4(CC3)CCN(c3ncc(C(=O)N[C@H]5C(C)(C)[C@H](Oc6ccc(C#N)c(Cl)c6)C5(C)C)cn3)CC4)c2)c2cc[nH]c2c1=O` [Compound I-318], the GI50 in the assay with T47D cells is under 500 nM; in assay [1], over 3000 nM; in assay [2], under 500 nM; with VCaP cells, over 3000 nM.
In the case of `CCS(=O)(=O)Nc1ccc(Oc2cccc(N3CCC(CC4CCN(c5ncc(C(=O)N[C@H]6C(C)(C)[C@H](Oc7ccc(C#N)c(Cl)c7)C6(C)C)cn5)CC4)C3)c2)c(-c2cn(C)c(=O)c3[nH]ccc23)c1` (some centres unmarked) [Compound I-40], the GI50 in the assay on T47D cells (Homo sapiens) was under 500 nM; in assay [1] it was over 3000 nM; in assay [2], under 500 nM; in the assay with VCaP cells (Homo sapiens), under 500 nM.
Consider `Cn1cc(-c2cc(C(C)(C)O)ccc2Oc2ccc(CCN3CC4(C3)CN(c3ncc(C(=O)N[C@H]5C(C)(C)[C@H](Oc6ccc(C#N)c(Cl)c6)C5(C)C)cn3)C4)cc2)c2cc[nH]c2c1=O` [Compound I-259], for which the GI50 with T47D cells was under 500 nM; in assay [1] it was 500 to 1500 nM; in assay [2] it was under 500 nM; in the assay with VCaP cells, under 500 nM.
As for `CC(C)c1ccc(Oc2cccc(N3CC(N4CCN(c5ncc(C(=O)N[C@H]6C(C)(C)[C@H](Oc7ccc(C#N)c(Cl)c7)C6(C)C)cn5)CC4)C3)c2F)c(-c2cn(C)c(=O)c3[nH]ccc23)c1` [Compound I-123], the GI50 in the assay with T47D cells (Homo sapiens) was 500 to 1500 nM; in assay [1], over 3000 nM; in assay [2], under 500 nM; with VCaP cells (Homo sapiens) it was over 3000 nM.
Regarding `CCS(=O)(=O)Nc1ccc(Oc2cccc(C3CC(N(C)C4CCN(c5ncc(C(=O)N[C@H]6C(C)(C)[C@H](Oc7ccc(C#N)c(Cl)c7)C6(C)C)cn5)CC4)C3)c2)c(-c2cn(C)c(=O)c3[nH]ccc23)c1` (some centres unmarked) [Compound I-129], the GI50 (in the assay on T47D cells; in assay [1]; in assay [2]; in the assay on VCaP cells) was under 500 nM in each case.
Regarding `Cn1cc(-c2cc(C(C)(C)O)ccc2Oc2ccc(CCC3CCN(c4cnc(C(=O)N[C@H]5C(C)(C)[C@H](Oc6ccc(C#N)c(Cl)c6)C5(C)C)cn4)CC3)cc2)c2cc[nH]c2c1=O` [Compound I-335], the GI50 with T47D cells is under 500 nM; in assay [1], over 3000 nM; in assay [2] it was over 3000 nM; with VCaP cells it was 500 to 1500 nM.
